From patent US20070112018A1, “Treatment of peripheral arterial occlusive disease” (priority 2005, published 2007)

Columns and labels:
[1] = tested on: Chlamydia; test: Phase 2 study in men with non-gonococcal urethritis, eradication of Chlamydia; format: in vivo, human
Excerpt: (§1) The use of rifalazil in the treatment of PAOD is supported by both preclinical and clinical lines of evidence.
Due to the recalcitrant response of C. pneumoniae to antibiotic therapy, the duration of therapy is thought to be an important parameter for optimizing treatment. Previous large well-controlled randomized studies have tested long term antibiotic therapy in the CHD population. A longer term treatment schedule with rifalazil than was utilized in eradicating C. trachomatis in NGU (single dose) may represent a preferred therapeutic regimen for producing a clinically beneficial effect on C. pneumoniae in patients with PAOD. Further, dosing of PAOD patients with rifalazil for a duration of 8 weeks may further optimize therapeutic effect against C. pneumoniae in these patients. Chlamydia pneumoniae infects the vasculature, and to elicit significant antibacterial activity against this pathogen, longer courses of treatment than those directed at C. trachomatis (i.e., single dose) are preferred. Pharmacokinetic and pharmacodynamic modeling predict that this dosage will provide continuous plasma and tissue concentrations of rifalazil above the MIC90 for C. pneumoniae for over 9 weeks. A single dose of 25 mg rifalazil administered once per week for up to 4 weeks was not associated with significant adverse effects in Phase 1 studies. […]

[2] = tested on: C. pneumoniae; test: Potency against C. pneumoniae compared with roxithromycin
Excerpt: as §1

[3] = Non-clinical oral pharmacokinetics, all species evaluated; format: in vivo; settings: oral administration
Procedure: Since the PK profile of rifalazil has been studied in man, only a brief summary of the non-clinical PK is provided. Overall, the absorption, distribution, metabolism, and elimination of rifalazil observed in the animals studied are similar to those observed in man.
Peak plasma concentrations were observed from 4 to 18 hours after oral administration.

[4] = Tissue concentrations after multiple oral doses in the monkey; format: in vivo
Procedure: In rats and dogs, the Vdβ/F following oral administration was 40-80 L/kg. […] The highest mean Cmax observed was in the wall of the GI tract and occurred approximately 1 hour post-dose. […] A large tissue compartment of rifalazil is considered important for efficacy against Chlamydia given the intracellular nature of Chlamydia infection.

[5] = Single 25 mg rifalazil with Ortho-Novum 1/35 in post-menopausal female volunteers, adverse events; settings: human, in vivo
Procedure: In another study, a single oral dose of 25 mg rifalazil was administered and its effects on ethinyl estradiol and norethindrone levels administered as the contraceptive Ortho-Novum 1/35® in 16 healthy post-menopausal female volunteers for 14 days was determined. The incidence of AEs was similar between the two treatment periods, with 13 (93%) of the 14 subjects included in the safety population experiencing at least 1 AE during dosing with Ortho-Novum 1/35 alone and 12 (86%) during dosing with rifalazil and Ortho-Novum 1/35. Overall, 4 (29%) subjects experienced at least 1 AE considered by the Investigator to be at least possibly related to rifalazil. The most commonly reported rifalazil-related events were nausea (4 subjects, 29%); headache (3 subjects, 21%); and loose stools, feeling hot, rigors, and myalgia (2 subjects each, 14%).
The majority of AEs were of mild or moderate intensity. One subject experienced myalgia of severe intensity during dosing with rifalazil and Ortho-Novum 1/35 that was assessed as probably related to study medication. […] Two subjects withdrew from the study because of AEs during the Ortho-Novum 1/35 only dosing period; neither subject received rifalazil.

[6] = Single 25-mg dose under three food conditions in healthy male adults, adverse events; format: in vivo, human
Procedure: In another study, a single 25-mg oral dose of rifalazil was administered to healthy male adults under one of three distinct food conditions: a high fat meal (60% fat), standard meal (30% fat), and under fasting conditions. No placebo-control was used in this study. Twelve subjects were enrolled, 10 of whom received all doses of rifalazil. Although high fat meal conditions result in higher plasma levels of rifalazil, the incidence of AEs was similar across all food conditions. A total of 83% of subjects (10/12) experienced treatment-emergent AEs, all of mild to moderate intensity. Fifty-eight percent were considered by the investigator to be drug-related. The most common reported drug-related AEs were back pain (25%) and headache (17%), and these were reported only in subjects under fed conditions. All other study medication-related AEs were reported by one subject (8%) only.

[7] = Healthy volunteers, 25 or 50 mg once a week for 4 weeks, adverse events; format: in vivo, human
Procedure: In one study, healthy volunteers received 25 or 50 mg once a week for 4 weeks. The overall incidence of AEs was 33% after the first weekly dose, 12% after the second and third weekly dose, and 0% at the fourth weekly dose. No subject discontinued the study due to AEs, and no serious AEs were reported in this study. The predominant AEs reported in the rifalazil group but not in the placebo group included: back pain (2/6. 33%), chills (3/6, 50%), neck pain (1/6. 17%), insomnia, and a range of gastrointestinal (GI) disturbances such as anorexia, nausea, thirst and vomiting (all in 1/6 patients, 17%).
The lowest individual value for subjects receiving 25 mg/week was 2.2×10^3/mm^3 (Day 25), and for 50-mg/week subjects, 2.3×10^3/mm^3 (Day 11). All values returned to baseline within 2 weeks of cessation of dosing. […] The above normal values at 50 mg/week occurred in 1 subject, and were of moderate Grade 2 severity during the interval from approximately Day 15 to Day 78. […] All values returned to baseline levels within 2 weeks of cessation of dosing.
The phenomenon of accommodation or tolerance with repeat weekly dosing of rifalazil became evident during the course of the study for both the 25-mg and 50-mg doses. In the 25-mg dosage group, the peak incidence of AEs occurred in the first week and decreased substantially over the remaining weeks.

[8] = tested on: C. trachomatis; test: Cell culture protection against re-infection with C. trachomatis; format: cell-based; settings: single doses in cell culture

CO[C@H]1/C=C/O[C@@]2(C)Oc3c(C)c(O)c4c(=O)c(c5oc6cc(N7CCN(CC(C)C)CC7)cc(O)c6nc-5c4c3C2=O)NC(=O)/C(C)=C\C=C\[C@H](C)[C@H](O)[C@@H](C)[C@@H](O)[C@@H](C)[C@H](OC(C)=O)[C@@H]1C [rifalazil, 3′-hydroxy-5′-(4-isobutyl-1-piperazinyl) benzoxazinorifamycin]
anti-chlamydial activity in patients with NGU ([1]; oral 25 mg): significant anti-chlamydial activity
patients in whom Chlamydia was eradicated ([1]; single oral dose): > 86%
potency against C. pneumoniae relative to roxithromycin [2]: 2000 times
Cmax and AUC as a function of dose [3]: dose-dependent but not dose-proportional
concentrations in genitourinary and GI tissues and coronary arteries versus plasma [4]: exceeded concentrations in plasma
subjects experiencing at least 1 AE ([5]; female): 86%
deaths or other serious AEs [5]: No deaths or other serious AEs
subjects with transient Grade 3 decreases in absolute lymphocyte count (ALC<0.5×10^3/mm^3) [5]: two
AEs considered by the investigator to be drug-related [6]: Fifty-eight
all other study medication-related AEs (each, one subject) [6]: 8%
subjects experiencing treatment-emergent AEs ([6]; all food conditions (10/12)): 83%
drug-related back pain ([6]; only under fed conditions): 25%
drug-related headache ([6]; only under fed conditions): 17%
subjects with low WBC counts ([7]; 25 mg/week): three of six
tolerability ([7]; 25 mg/week): fairly well tolerated
lowest individual WBC value ([7]; 25 mg/week, Day 25): 2.2×10^3 /mm^3
subjects with low WBC counts ([7]; 50 mg/week): 6 of 8
tolerability ([7]; 50 mg/week): not considered well tolerated
lowest individual WBC value ([7]; 50 mg/week, Day 11): 2.3×10^3 /mm^3
mean AST and ALT values ([7]; 50 mg/week, not in the 25 mg/week group): transient increase
subjects with Grade 4 lymphocyte toxicity ([7]; 25-mg/week): 1 subject
time for WBC values to return to baseline after cessation of dosing ([7]; 25 and 50 mg/week): ≤ 2 weeks
subjects with Grade 4 lymphocyte toxicity ([7]; 50-mg/week): 3 subjects
overall incidence of AEs ([7]; after the first weekly dose): 33%
overall incidence of AEs ([7]; after the second and third weekly dose): 12%
overall incidence of AEs ([7]; at the fourth weekly dose): 0%
neck pain ([7]; rifalazil group (1/6)): 17%
back pain ([7]; rifalazil group (2/6)): 33%
chills ([7]; rifalazil group (3/6)): 50%
insomnia, anorexia, nausea, thirst and vomiting (each) ([7]; rifalazil group (all in 1/6 patients)): 17%
asthenia ([7]; rifalazil-treated groups): 33%
dizziness ([7]; rifalazil-treated groups): 50%
fever ([7]; rifalazil-treated groups): 67%
headache ([7]; rifalazil-treated groups): 67%
pain ([7]; rifalazil-treated groups): 50%
duration of protective effect against re-infection with C. trachomatis [8]: up to 12 days
